# From ChEMBL document CHEMBL4813920, “Metronidazole-conjugates: A comprehensive review of recent developments towards synthesis and medicinal perspective” (Eur J Med Chem, 2021)
# Key:
# [1] = system: Giardia intestinalis; experiment: Antigiardial activity against Giardia intestinalis WB ATCC 30957 by trypan blue staining based assay; assay type: functional, organism-based; conditions: Giardia duodenalis
# [2] = system: Entamoeba histolytica; experiment: Antiamoebic activity against Entamoeba histolytica HK9 ATCC 30015 by trypan blue staining based assay; assay type: functional, organism-based
# [3] = system: Clostridium sporogenes; experiment: Antimicrobial activity against Clostridium sporogenes ATCC 19404 incubated for 24 hrs by broth microdilution method; assay type: functional
# [4] = molecular target: Carbonic anhydrase 2 (Homo sapiens, UniProt P00918); experiment: Inhibition of recombinant human carbonic anhydrase 2 preincubated with enzyme for 15 mins by phenol red dye based stopped flow CO2 hydration assay
# [5] = molecular target: Carbonic anhydrase 9 (Homo sapiens, UniProt Q16790); experiment: Inhibition of recombinant human carbonic anhydrase 9 preincubated with enzyme for 15 mins by phenol red dye based stopped flow CO2 hydration assay
# [6] = system: Candida albicans; experiment: Antifungal activity against Candida albicans ATCC 10231 incubated for 24 hrs by broth microdilution method; assay type: functional
# [7] = system: Escherichia coli; experiment: Antibacterial activity against Escherichia coli ATCC 8739 incubated for 24 hrs by broth microdilution method; assay type: functional
# [8] = system: Staphylococcus aureus; experiment: Antibacterial activity against Staphylococcus aureus ATCC 6538P incubated for 24 hrs by broth microdilution method; assay type: functional
# [9] = system: Leishmania mexicana; experiment: Antileishmanial activity against promastigote form of Leishmania mexicana MHOM/BZ/82/Bel21 measured for 7 days by cell counting method; assay type: functional; conditions: MHOM/BZ/82/Bel21, 168 h, time 7 day
# [10] = system: Leishmania braziliensis; experiment: Antileishmanial activity against promastigote form of Leishmania braziliensis MHOM/BR/75/M2903 measured for 7 days by cell counting method; assay type: functional; conditions: MHOM/BR/75/M2903, 168 h, time 7 day
# [11] = molecular target: T1, Pancreatic alpha-amylase (Sus scrofa, UniProt P00690); experiment: Inhibition of porcine pancreatic alpha-amylase using 1% starch as substrate preincubated for 10 mins followed by substrate addition and measured after 10 mins by absorbance method
# T1 sequence (P00690 whole entry): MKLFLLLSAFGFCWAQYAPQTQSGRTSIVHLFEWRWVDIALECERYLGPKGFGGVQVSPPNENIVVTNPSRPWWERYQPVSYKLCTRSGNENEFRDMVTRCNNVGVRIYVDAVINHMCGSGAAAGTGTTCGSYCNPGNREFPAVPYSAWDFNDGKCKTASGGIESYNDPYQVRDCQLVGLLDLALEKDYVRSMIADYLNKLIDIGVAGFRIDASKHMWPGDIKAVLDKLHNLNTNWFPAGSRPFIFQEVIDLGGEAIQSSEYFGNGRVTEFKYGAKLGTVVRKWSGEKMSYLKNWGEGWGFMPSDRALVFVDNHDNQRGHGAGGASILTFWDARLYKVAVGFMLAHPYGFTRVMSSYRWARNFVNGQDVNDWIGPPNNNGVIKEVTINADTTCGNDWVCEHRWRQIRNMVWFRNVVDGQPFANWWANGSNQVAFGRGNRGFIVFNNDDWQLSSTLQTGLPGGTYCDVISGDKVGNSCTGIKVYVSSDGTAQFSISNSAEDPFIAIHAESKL
# [12] = system: Pseudomonas aeruginosa; experiment: Antibacterial activity against Pseudomonas aeruginosa ATCC 13525 incubated for 24 hrs by two fold serial dilution method; assay type: functional
# [13] = system: Bacillus spizizenii; experiment: Antibacterial activity against Bacillus subtilis ATCC 6633 incubated for 24 hrs by two fold serial dilution method; assay type: functional
# [14] = system: Escherichia coli; experiment: Antibacterial activity against Escherichia coli ATCC 35218 incubated for 24 hrs by two fold serial dilution method; assay type: functional
# [15] = system: Staphylococcus aureus; experiment: Antibacterial activity against Staphylococcus aureus ATCC 6538 incubated for 24 hrs by two fold serial dilution method; assay type: functional
# [16] = system: Giardia intestinalis; experiment: Antigiardial activity against Giardia intestinalis MSS:0696:1 incubated for 48 hrs; assay type: functional, organism-based; conditions: Giardia duodenalis, MSS:0696:1, 48 h
# [17] = system: Trichomonas vaginalis; experiment: Anti-trichomonas activity against Trichomonas vaginalis GT3 incubated for 48 hrs; assay type: functional, organism-based; conditions: GT3, 48 h
# [18] = Selectivity index, ratio of CC50 for African green monkey Vero cells to IC50 for antigiardial activity against Giardia intestinalis MSS:0696:1; assay type: toxicity; conditions: read-out: Ratio CC50/IC50
# [19] = Selectivity index, ratio of CC50 for African green monkey Vero cells to IC50 for antigiardial activity against Trichomonas vaginalis GT3; assay type: toxicity; conditions: read-out: Ratio CC50/IC50
# [20] = system: MDA-MB-231; experiment: Antiproliferative activity against human MDA-MB-231 cells after 24 hrs by MTT assay; assay type: functional, cell-based; conditions: MDA-MB-231, 24 h
# [21] = system: HEK293; experiment: Cytotoxicity against HEK293 cells after 24 hrs by MTT assay; assay type: cell-based; conditions: Homo sapiens, HEK293, 24 h
# [22] = system: Entamoeba histolytica; experiment: Antiamoebic activity against Entamoeba histolytica HK9 ATCC 30015 incubated for 72 hrs by trypan blue staining based assay; assay type: functional, organism-based; conditions: ATCC 30015, 72 h
# [23] = system: Pseudomonas aeruginosa; experiment: Antibacterial activity against Pseudomonas aeruginosa ATCC 13525 by MH media dilution method; assay type: functional
# [24] = system: Escherichia coli; experiment: Antibacterial activity against Escherichia coli ATCC 35218 by MH media dilution method; assay type: functional
# [25] = system: Staphylococcus aureus; experiment: Antibacterial activity against Staphylococcus aureus ATCC 6538 by MH media dilution method; assay type: functional
# [26] = system: Bacillus spizizenii; experiment: Antibacterial activity against Bacillus subtilis ATCC 6633 by MH media dilution method; assay type: functional
# [27] = system: HeLa; experiment: Antiproliferative activity against human Hela cells incubated for 24 to 48 hrs by CCK8 assay; assay type: functional, cell-based
# [28] = system: HepG2; experiment: Antiproliferative activity against human HepG2 cells incubated for 24 to 48 hrs by CCK8 assay; assay type: functional, cell-based
# [29] = system: A549; experiment: Antiproliferative activity against human A549 cells incubated for 24 to 48 hrs by CCK8 assay; assay type: functional, cell-based
# [30] = system: U-251; experiment: Antiproliferative activity against human U-251 cells incubated for 24 to 48 hrs by CCK8 assay; assay type: functional, cell-based
smiles,measurement,setting,value
COc1ccc(-n2c(SCCn3c([N+](=O)[O-])cnc3C)nnc2-c2cccnc2)cc1,IC50,[1],1.78 µM
same,IC50,[2],0.48 µM
same,MIC,[3],17.8 µM
Cc1ncc([N+](=O)[O-])n1CCOc1ccc(/C=N\c2ccc(S(=O)(=O)NC(=N)N)cc2)cc1,IC50,[4],0.07 µM
same,IC50,[5],0.135 µM
Cc1ncc([N+](=O)[O-])n1CC/N=C/c1cc(Cl)ccc1O,MIC,[6],170 µM
same,MIC,[7],760 µM
same,MIC,[8],760 µM
Cc1ncc([N+](=O)[O-])n1CCSCO,LC50,[9],2250 µM
same,LC50,[10],950 µM
Cc1ncc([N+](=O)[O-])n1CCOCc1ccc(Cl)cc1,IC50,[11],< 2.98 µM
Cc1ncc([N+](=O)[O-])n1CCOCc1ccc[nH]1,IC50,[11],< 2.98 µM
Cc1ncc([N+](=O)[O-])n1CCOCc1cccc(Cl)c1,IC50,[11],< 2.98 µM
Cc1ncc([N+](=O)[O-])n1CCn1c(-c2ccncc2)nn(-c2ccccc2)c1=S,IC50,[1],0.76 µM
same,IC50,[2],3.27 µM
same,MIC,[3],29.9 µM
COc1ccc(COCCn2c([N+](=O)[O-])cnc2C)cc1,IC50,[11],< 2.98 µM
COc1ccc(/C=N/CCn2c([N+](=O)[O-])cnc2C)cc1,MIC,[6],170 µM
Cc1ncc([N+](=O)[O-])n1CCSCOC(=O)c1ccc(O)c(O)c1,LC50,[9],11 µM
same,LC50,[10],13 µM
CC1(C)S[C@@H]2[C@H](NC(=O)[C@H](N)c3ccccc3)C(=O)N2[C@H]1C(=O)O [AMPICILLIN],MIC,[7],2.3 µM
same,MIC,[8],0.036 µM
Cc1ncc([N+](=O)[O-])n1CC/N=C/c1ccccc1O,MIC,[6],170 µM
same,MIC,[7],2240 µM
same,MIC,[8],2000 µM
Cc1ncc([N+](=O)[O-])n1CCOCc1ccc2ccccc2c1,IC50,[11],1.66 µM
Cc1ncc([N+](=O)[O-])n1CC/N=C/c1ccc([N+](=O)[O-])cc1,MIC,[6],170 µM
NC[C@H]1O[C@H](O[C@H]2[C@H](O)[C@@H](O[C@H]3O[C@H](CO)[C@@H](O)[C@H](N)[C@H]3O)[C@H](N)C[C@@H]2N)[C@H](N)[C@@H](O)[C@@H]1O [BEKANAMYCIN],MIC,[12],3.13 µg/mL
same,MIC,[13],0.78 µg/mL
same,MIC,[14],1.56 µg/mL
same,MIC,[15],1.56 µg/mL
Cc1cc(COCCn2c([N+](=O)[O-])cnc2C)ccc1[N+](=O)[O-],IC50,[11],< 2.98 µM
Cc1ncc([N+](=O)[O-])n1CC(C)O (centres undefined) [SECNIDAZOLE],IC50,[16],4.41 µM
same,IC50,[17],13.5 µM
same,selectivity ratio,[18],> 24
same,selectivity ratio,[19],> 7
CC1=CC(=O)c2c(O)cccc2C1=O [PLUMBAGIN],IC50,[20],4.4 µM
Cc1ncc([N+](=O)[O-])n1CCOCc1ccc(F)cc1Br,IC50,[11],< 2.98 µM
Cc1ncc([N+](=O)[O-])n1CCOc1cccc(/C=N\c2ccc(S(=O)(=O)Nc3nccs3)cc2)c1,IC50,[4],0.089 µM
same,IC50,[5],0.038 µM
CCOC(=O)[C@H](CC(=O)O)NC(=O)Cn1c([N+](=O)[O-])cnc1C,IC50,[1],2.26 µM
same,IC50,[2],2.21 µM
Cc1ncc([N+](=O)[O-])n1Cc1cn(CCCCCN2C(=O)C(=O)c3cc(Cl)ccc32)nn1,IC50,[21],12.1 µM
Cc1cccc(COCCn2c([N+](=O)[O-])cnc2C)c1,IC50,[11],0.38 µM
Cc1ncc([N+](=O)[O-])n1CCOCc1ccc(F)cc1,IC50,[11],< 2.98 µM
Cc1ncc([N+](=O)[O-])n1CCN1CCN(c2ccnc3cc(Cl)ccc23)CC1,IC50,[22],0.96 µM
CCOC(=O)C(CCCCNC(=O)C(C)n1c([N+](=O)[O-])cnc1C)NC(=O)Cn1c([N+](=O)[O-])cnc1C (centres undefined),IC50,[1],3.84 µM
same,IC50,[2],3.95 µM
Cc1ncc([N+](=O)[O-])n1CCOCc1cccc([N+](=O)[O-])c1,IC50,[11],< 2.98 µM
Cc1ccc(COCCn2c([N+](=O)[O-])cnc2C)cc1,IC50,[11],< 2.98 µM
Cc1ccccc1COCCn1c([N+](=O)[O-])cnc1C,IC50,[11],< 2.98 µM
Cc1ncc([N+](=O)[O-])n1CCOCc1ccc(Br)cc1,IC50,[11],< 2.98 µM
Cc1ccc(/C=N/CCn2c([N+](=O)[O-])cnc2C)cc1,MIC,[6],170 µM
Cc1ncc([N+](=O)[O-])n1CCSCOC(=O)c1cc(O)c(O)c(O)c1,LC50,[9],1 µM
same,LC50,[10],4 µM
Cc1ncc([N+](=O)[O-])n1CCOCc1ccc(C#N)cc1,IC50,[11],< 2.98 µM
COc1cc(COCCn2c([N+](=O)[O-])cnc2C)cc(OC)c1,IC50,[11],< 2.98 µM
Cc1ncc([N+](=O)[O-])n1CCSc1nnc(-c2ccncc2)n1-c1cccc2ccccc12,MIC,[3],17.1 µM
Cc1ncc([N+](=O)[O-])n1CCNC(=O)/C=C/c1ccc([N+](=O)[O-])o1,IC50,[22],5.32 µM
O=C(N[C@H](CO)[C@H](O)c1ccc([N+](=O)[O-])cc1)C(Cl)Cl [CHLORAMPHENICOL],MIC,[23],0.98 µg/mL
same,MIC,[24],3.91 µg/mL
same,MIC,[25],3.91 µg/mL
same,MIC,[26],3.91 µg/mL
Cc1ncc([N+](=O)[O-])n1CCOCc1ccncc1,IC50,[11],< 2.98 µM
Cc1ncc([N+](=O)[O-])n1CCOCc1ccccc1Cl,IC50,[11],< 2.98 µM
Cc1ncc([N+](=O)[O-])n1CC/N=C/c1cccs1,MIC,[6],170 µM
Cc1ncc([N+](=O)[O-])n1CCOCc1ccccc1Br,IC50,[11],< 2.98 µM
Cn1c(-c2ccncc2)n[nH]c1=S,IC50,[1],1.56 µM
same,IC50,[2],1.37 µM
Cc1ncc([N+](=O)[O-])n1CCOCc1ccccc1,IC50,[11],< 2.98 µM
Cc1cc(NNS(=O)(=O)c2ccc(/N=C\c3ccc(OCCn4c([N+](=O)[O-])cnc4C)cc3)cc2)no1,IC50,[4],0.033 µM
same,IC50,[5],0.112 µM
C[C@@H]1CCN(C(=O)CC#N)C[C@@H]1N(C)c1ncnc2[nH]ccc12 [TOFACITINIB],IC50,[27],0.04 µM
same,IC50,[28],0.11 µM
same,IC50,[29],0.1 µM
same,IC50,[30],0.33 µM
Cc1ncc([N+](=O)[O-])n1CCOc1ccc(/C=N\c2ccc(S(=O)(=O)Nc3nccs3)cc2)cc1,IC50,[4],0.016 µM
same,IC50,[5],0.093 µM
Cc1ncc([N+](=O)[O-])n1CC/N=C/c1ccccc1Cl,MIC,[6],170 µM
CC1(C)S[C@@H]2[C@H](NC(=O)Cc3ccccc3)C(=O)N2[C@H]1C(=O)O [PENICILLIN G],MIC,[12],6.25 µg/mL
same,MIC,[13],1.56 µg/mL
same,MIC,[14],3.13 µg/mL
same,MIC,[23],7.82 µg/mL
same,MIC,[24],7.82 µg/mL
same,MIC,[25],1.96 µg/mL
same,MIC,[26],0.98 µg/mL
same,MIC,[15],6.25 µg/mL
Cc1ncc([N+](=O)[O-])n1CC/N=C/c1ccc(F)cc1,MIC,[6],170 µM
COc1cccc(COCCn2c([N+](=O)[O-])cnc2C)c1,IC50,[11],< 2.98 µM
